# Results as given in patent US9469650B2, “Melampomagnolide B derivatives” (BOARD OF TRUSTEES OF THE UNIVERSITY OF ARKANSAS, priority 2013, dated 2016).
# Where two headings read alike, the source gives them in different places.
# Experiments:
# [1] = system: SK-MEL-2; assay: panel of 60 human tumor cell lines, growth inhibition (Melanoma); details: SK-MEL-2
# [2] = system: SN12C; assay: panel of 60 human tumor cell lines, growth inhibition (Renal Cancer)
# [3] = system: MCF7; assay: panel of 60 human tumor cell lines, growth inhibition (Breast Cancer); details: MCF7
# [4] = system: HOP-92; assay: panel of 60 human tumor cell lines, growth inhibition (Non-Small Cell Lung Cancer); details: HOP-92
# [5] = system: HL-60(TB)
# [6] = system: HCT-15; assay: panel of 60 human tumor cell lines, growth inhibition (Colon Cancer); details: HCT-15
# [7] = system: HOP-62; assay: panel of 60 human tumor cell lines, growth inhibition (Non-Small Cell Lung Cancer); details: HOP-62
# [8] = system: NCI-H460; assay: as above; details: NCI-H460
# [9] = system: CAKI-1; assay: panel of 60 human tumor cell lines, growth inhibition (Renal Cancer); details: CAKI-1
# [10] = system: SK-MEL-5; assay: panel of 60 human tumor cell lines, growth inhibition (Melanoma); details: 8K-MEL-5
# [11] = system: LOX IMVI; assay: as above
# [12] = system: RXF 393; assay: panel of 60 human tumor cell lines, growth inhibition (Renal Cancer); details: RXF 393
# [13] = system: DU-145; assay: panel of 60 human tumor cell lines, growth inhibition (Prostate Cancer); details: DU-145
# [14] = system: HCC-2998; assay: panel of 60 human tumor cell lines, growth inhibition (Colon Cancer); details: HCC-2998
# [15] = system: NCI-H226; assay: panel of 60 human tumor cell lines, growth inhibition (Non-Small Cell Lung Cancer); details: NCI-H226
# [16] = system: SK-OV-3; assay: panel of 60 human tumor cell lines, growth inhibition (Ovarian Cancer); details: SK-OV-3
# [17] = system: MOLT-4; assay: panel of 60 human tumor cell lines, growth inhibition (Leukemia); details: MOLT-4
# [18] = system: MDA-MB-231/ATCC; assay: panel of 60 human tumor cell lines, growth inhibition (Breast Cancer); details: MDA-MB-231/ATCC
# [19] = system: CCRF-CEM; assay: panel of 60 human tumor cell lines, growth inhibition (Leukemia)
structure (smiles),measurement,setting,value
C=C1C(=O)O[C@H]2[C@H]1CC/C(COC(=O)N1CCC(F)(F)CC1)=C\CC[C@@]1(C)O[C@@H]21 [JVM 2-66],GI50,[1],2.93 µM
same,TGI,[1],8.95E−6
same,Percent Growth,[1]; Log10 Concentration −4.0,−84%
same,Percent Growth,[1]; Log10 Concentration −5.0,−5%
same,Percent Growth,[1]; Log10 Concentration −6.0,98%
same,Percent Growth,[1]; Log10 Concentration −7.0,99%
same,Percent Growth,[1]; Log10 Concentration −8.0,100%
same,GI50,[2],2.72 µM
same,TGI,[2],1.06E−5
same,Percent Growth,[2]; Log10 Concentration −4.0,−89%
same,Percent Growth,[2]; Log10 Concentration −5.0,3%
same,Percent Growth,[2]; Log10 Concentration −6.0,86%
same,Percent Growth,[2]; Log10 Concentration −7.0,94%
same,Percent Growth,[2]; Log10 Concentration −8.0,98%
same,GI50,[3],1.62 µM
same,TGI,[3],4.91E−6
same,Percent Growth,[3]; Log10 Concentration −4.0,−75%
same,Percent Growth,[3]; Log10 Concentration −5.0,−32%
same,Percent Growth,[3]; Log10 Concentration −6.0,72%
same,Percent Growth,[3]; Log10 Concentration −7.0,83%
same,Percent Growth,[3]; Log10 Concentration −8.0,89%
same,GI50,[4],1.45 µM
same,TGI,[4],3.89E−6
same,Percent Growth,[4]; Log10 Concentration −4.0,−94%
same,Percent Growth,[4]; Log10 Concentration −5.0,−48%
same,Percent Growth,[4]; Log10 Concentration −6.0,69%
same,Percent Growth,[4]; Log10 Concentration −7.0,92%
same,Percent Growth,[4]; Log10 Concentration −8.0,95%
same,GI50,[5],2.04 µM
same,TGI,[5],7.15E−6
same,Percent Growth,[5]; Log10 Concentration −4.0,−49%
same,Percent Growth,[5]; Log10 Concentration −5.0,−13%
same,Percent Growth,[5]; Log10 Concentration −6.0,79%
same,Percent Growth,[5]; Log10 Concentration −7.0,84%
same,Percent Growth,[5]; Log10 Concentration −8.0,97%
same,CC50,[5]; read-out: LC50,> 100 µM
same,GI50,[6],1.47 µM
same,TGI,[6],3.84E−6
same,Percent Growth,[6]; Log10 Concentration −4.0,−86%
same,Percent Growth,[6]; Log10 Concentration −5.0,−50%
same,Percent Growth,[6]; Log10 Concentration −6.0,70%
same,Percent Growth,[6]; Log10 Concentration −7.0,94%
same,Percent Growth,[6]; Log10 Concentration −8.0,100%
same,GI50,[7],13.6 µM
same,TGI,[7],2.81E−5
same,Percent Growth,[7]; Log10 Concentration −4.0,−87%
same,Percent Growth,[7]; Log10 Concentration −5.0,71%
same,Percent Growth,[7]; Log10 Concentration −6.0,93%
same,Percent Growth,[7]; Log10 Concentration −7.0,92%
same,Percent Growth,[7]; Log10 Concentration −8.0,101%
same,GI50,[8],13.3 µM
same,TGI,[8],3.10E−5
same,Percent Growth,[8]; Log10 Concentration −4.0,−69%
same,Percent Growth,[8]; Log10 Concentration −5.0,67%
same,Percent Growth,[8]; Log10 Concentration −6.0,99%
same,Percent Growth,[8]; Log10 Concentration −7.0,101%
same,Percent Growth,[8]; Log10 Concentration −8.0,100%
same,GI50,[9],2.03 µM
same,TGI,[9],6.16E−6
same,Percent Growth,[9]; Log10 Concentration −4.0,−97%
same,Percent Growth,[9]; Log10 Concentration −5.0,−22%
same,Percent Growth,[9]; Log10 Concentration −6.0,82%
same,Percent Growth,[9]; Log10 Concentration −7.0,91%
same,Percent Growth,[9]; Log10 Concentration −8.0,97%
same,GI50,[10],3.81 µM
same,TGI,[10],1.50E−5
same,Percent Growth,[10]; Log10 Concentration −4.0,−96%
same,Percent Growth,[10]; Log10 Concentration −5.0,21%
same,Percent Growth,[10]; Log10 Concentration −6.0,91%
same,Percent Growth,[10]; Log10 Concentration −7.0,99%
same,Percent Growth,[10]; Log10 Concentration −8.0,99%
same,GI50,[11],2.23 µM
same,TGI,[11],5.77E−6
same,Percent Growth,[11]; Log10 Concentration −4.0,−89%
same,Percent Growth,[11]; Log10 Concentration −5.0,−29%
same,Percent Growth,[11]; Log10 Concentration −6.0,92%
same,Percent Growth,[11]; Log10 Concentration −7.0,93%
same,Percent Growth,[11]; Log10 Concentration −8.0,96%
same,GI50,[12],1.2 µM
same,TGI,[12],2.53E−6
same,Percent Growth,[12]; Log10 Concentration −4.0,−92%
same,Percent Growth,[12]; Log10 Concentration −5.0,−92%
same,Percent Growth,[12]; Log10 Concentration −6.0,62%
same,Percent Growth,[12]; Log10 Concentration −7.0,95%
same,Percent Growth,[12]; Log10 Concentration −8.0,100%
same,GI50,[13],2.44 µM
same,TGI,[13],8.35E−6
same,Percent Growth,[13]; Log10 Concentration −4.0,−100%
same,Percent Growth,[13]; Log10 Concentration −5.0,−7%
same,Percent Growth,[13]; Log10 Concentration −6.0,86%
same,Percent Growth,[13]; Log10 Concentration −7.0,100%
same,Percent Growth,[13]; Log10 Concentration −8.0,102%
same,GI50,[14],6.24 µM
same,TGI,[14],2.11E−5
same,Percent Growth,[14]; Log10 Concentration −4.0,−77%
same,Percent Growth,[14]; Log10 Concentration −5.0,37%
same,Percent Growth,[14]; Log10 Concentration −6.0,101%
same,Percent Growth,[14]; Log10 Concentration −7.0,91%
same,Percent Growth,[14]; Log10 Concentration −8.0,96%
same,TGI,[15],4.35E−6
same,Percent Growth,[15]; Log10 Concentration −4.0,−71%
same,Percent Growth,[15]; Log10 Concentration −5.0,−49%
same,Percent Growth,[15]; Log10 Concentration −6.0,87%
same,Percent Growth,[15]; Log10 Concentration −7.0,90%
same,Percent Growth,[15]; Log10 Concentration −8.0,102%
same,GI50,[16],16.2 µM
same,TGI,[16],3.22E−5
same,Percent Growth,[16]; Log10 Concentration −4.0,−83%
same,Percent Growth,[16]; Log10 Concentration −5.0,85%
same,Percent Growth,[16]; Log10 Concentration −6.0,100%
same,Percent Growth,[16]; Log10 Concentration −7.0,92%
same,Percent Growth,[16]; Log10 Concentration −8.0,100%
same,GI50,[17],2.05 µM
same,TGI,[17],5.71E−6
same,Percent Growth,[17]; Log10 Concentration −4.0,−39%
same,Percent Growth,[17]; Log10 Concentration −5.0,−27%
same,Percent Growth,[17]; Log10 Concentration −6.0,85%
same,Percent Growth,[17]; Log10 Concentration −7.0,85%
same,Percent Growth,[17]; Log10 Concentration −8.0,94%
same,GI50,[18],2.01 µM
same,TGI,[18],6.59E−6
same,Percent Growth,[18]; Log10 Concentration −4.0,−84%
same,Percent Growth,[18]; Log10 Concentration −5.0,−18%
same,Percent Growth,[18]; Log10 Concentration −6.0,79%
same,Percent Growth,[18]; Log10 Concentration −7.0,92%
same,Percent Growth,[18]; Log10 Concentration −8.0,101%
same,GI50,[19],0.682 µM
same,TGI,[19],3.41E−6
same,Percent Growth,[19]; Log10 Concentration −4.0,−53%
same,Percent Growth,[19]; Log10 Concentration −5.0,−36%
same,Percent Growth,[19]; Log10 Concentration −6.0,41%
same,Percent Growth,[19]; Log10 Concentration −7.0,97%
same,Percent Growth,[19]; Log10 Concentration −8.0,97%
